This note sets out measurements from ChEMBL document CHEMBL1201862, “PubChem BioAssay data set” (2004).

The source made the active and inactive calls.

Targets include Cytochrome P450 2C9 (Homo sapiens, UniProt P11712); Cytochrome P450 3A4 (Homo sapiens, UniProt P08684); Cytochrome P450 2D6 (Homo sapiens, UniProt P10635).
Data set [1] can be described thus: Luminescence Cell-Based Dose Retest to Confirm Inhibitors of Cancer Stem Cells. [Related pubchem assays (depositor defined):AID2717, AID2721]. In kind it is functional. The settings on record: Homo sapiens.
The target in data set [2] is T1, Replicative DNA helicase DnaB (Mycobacterium tuberculosis, UniProt P9WMR3).
T1 sequence (P9WMR3 whole entry): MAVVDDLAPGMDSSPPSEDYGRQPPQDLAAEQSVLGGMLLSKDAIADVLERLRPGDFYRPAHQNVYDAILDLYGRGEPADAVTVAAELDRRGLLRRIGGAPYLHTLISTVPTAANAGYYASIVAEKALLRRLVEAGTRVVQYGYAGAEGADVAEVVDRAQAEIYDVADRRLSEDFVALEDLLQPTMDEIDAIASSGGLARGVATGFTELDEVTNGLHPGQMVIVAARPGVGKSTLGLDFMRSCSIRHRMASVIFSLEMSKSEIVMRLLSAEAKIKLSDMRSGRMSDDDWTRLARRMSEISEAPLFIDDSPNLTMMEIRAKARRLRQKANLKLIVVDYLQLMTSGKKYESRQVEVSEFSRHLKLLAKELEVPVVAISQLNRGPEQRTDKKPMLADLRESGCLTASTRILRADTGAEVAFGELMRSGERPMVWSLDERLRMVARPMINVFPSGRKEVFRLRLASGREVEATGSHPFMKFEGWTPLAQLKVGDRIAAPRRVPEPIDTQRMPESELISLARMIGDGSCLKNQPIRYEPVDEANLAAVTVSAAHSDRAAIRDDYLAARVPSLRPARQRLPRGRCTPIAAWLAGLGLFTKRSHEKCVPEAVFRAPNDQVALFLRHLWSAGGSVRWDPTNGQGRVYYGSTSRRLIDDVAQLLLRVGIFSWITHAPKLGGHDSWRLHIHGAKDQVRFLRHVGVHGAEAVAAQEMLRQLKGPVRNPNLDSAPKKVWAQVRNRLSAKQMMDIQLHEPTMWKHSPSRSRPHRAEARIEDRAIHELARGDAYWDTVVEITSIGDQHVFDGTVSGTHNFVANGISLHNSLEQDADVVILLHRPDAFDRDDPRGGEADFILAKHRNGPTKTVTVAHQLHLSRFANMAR
The data set can be described thus: DnaB intein splicing inhibitors, dose response, biochemical, cell-free fluorescence (AID 449749). In kind it is functional.

A further data set deals with T2, Coagulation factor XII (Homo sapiens, UniProt P00748).
T2 sequence (P00748 whole entry): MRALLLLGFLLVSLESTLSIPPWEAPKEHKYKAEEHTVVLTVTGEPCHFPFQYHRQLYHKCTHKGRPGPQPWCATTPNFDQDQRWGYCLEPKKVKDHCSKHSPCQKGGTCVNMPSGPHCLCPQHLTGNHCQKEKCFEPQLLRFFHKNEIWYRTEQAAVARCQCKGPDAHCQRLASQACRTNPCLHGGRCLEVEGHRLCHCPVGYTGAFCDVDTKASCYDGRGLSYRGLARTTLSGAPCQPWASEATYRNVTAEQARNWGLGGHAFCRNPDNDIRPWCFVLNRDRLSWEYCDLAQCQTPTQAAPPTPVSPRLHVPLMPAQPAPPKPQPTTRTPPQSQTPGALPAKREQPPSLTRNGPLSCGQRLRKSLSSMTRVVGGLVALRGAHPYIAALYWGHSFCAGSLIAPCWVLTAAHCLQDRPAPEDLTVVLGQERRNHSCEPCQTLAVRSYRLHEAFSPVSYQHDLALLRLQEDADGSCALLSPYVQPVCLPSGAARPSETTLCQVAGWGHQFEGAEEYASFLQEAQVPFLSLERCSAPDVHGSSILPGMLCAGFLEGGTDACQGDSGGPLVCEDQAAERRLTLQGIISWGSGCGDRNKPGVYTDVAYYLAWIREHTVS
In kind it is functional.

The target in a further data set is T3, Protein RecA (Mycobacterium tuberculosis, UniProt P9WHJ3).
T3 sequence (P9WHJ3 whole entry): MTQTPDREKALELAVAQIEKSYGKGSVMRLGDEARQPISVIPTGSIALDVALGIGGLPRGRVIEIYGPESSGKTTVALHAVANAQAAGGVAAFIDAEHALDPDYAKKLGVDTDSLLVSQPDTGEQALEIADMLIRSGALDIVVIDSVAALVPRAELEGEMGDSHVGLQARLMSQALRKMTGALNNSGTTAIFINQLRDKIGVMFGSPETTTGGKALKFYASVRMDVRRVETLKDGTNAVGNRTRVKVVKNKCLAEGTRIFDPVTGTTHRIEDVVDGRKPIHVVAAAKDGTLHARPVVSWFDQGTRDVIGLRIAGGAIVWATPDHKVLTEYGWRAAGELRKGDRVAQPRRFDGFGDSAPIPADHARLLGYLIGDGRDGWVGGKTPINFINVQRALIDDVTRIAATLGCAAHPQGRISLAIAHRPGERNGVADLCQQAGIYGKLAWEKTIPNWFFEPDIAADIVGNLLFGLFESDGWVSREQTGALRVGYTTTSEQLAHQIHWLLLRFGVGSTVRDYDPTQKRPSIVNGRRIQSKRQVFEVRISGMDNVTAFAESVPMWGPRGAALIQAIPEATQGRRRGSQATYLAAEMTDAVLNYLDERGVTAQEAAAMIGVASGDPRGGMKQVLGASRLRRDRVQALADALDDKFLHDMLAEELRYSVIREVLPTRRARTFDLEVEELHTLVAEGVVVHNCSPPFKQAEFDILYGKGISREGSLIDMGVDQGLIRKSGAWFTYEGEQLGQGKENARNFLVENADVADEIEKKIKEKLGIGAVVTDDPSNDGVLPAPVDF
The data set can be described thus: Fluorescence Cell-Free Homogeneous Dose Retest to Identify Inhibitors of RecA-Intein Splicing Activity. [Related pubchem assays (depositor defined):AID2097, AID2223, AID489010, AID492950]. In kind it is functional.

Data set [3] is described as follows: decrease of insulin promoter-GFP reporter – imaging, high-content screening, mouse beta cells (AID 1628). In kind it is functional. As to conditions: MIN6.
The next data set relates to INS1. The data set can be described thus: INS-1E survival protection against cytokine death – cell-based, luminescence, retest, dose response (AID 449756).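 Note: cell death triggered by IL-1 beta plus TNF-alpha plus IFN-gamma mixture; protective hits raise ATP signal compared with cytokine alone wells.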 In kind it is functional. The settings on record: Rattus norvegicus.
The nature of data set [4]: MIN6 cell viability loss – mouse insulinoma, cytotoxicity control, dose response (AID 2122).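 Note: confirmatory high-throughput counterscreen run to flag cytotoxic compounds.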 In kind it is functional.
The next data set concerns Vero. The data set can be described thus: viability of Vero cells under compound – cytotoxicity control for flavivirus capping enzyme inhibitors (AID 588742). It is filed as functional. The settings on record: Chlorocebus sabaeus.
The target of a further data set is Genome polyprotein (dengue virus type 2, UniProt P29990). Kind of data set: flavivirus cap methylation enzyme inhibition – biochemical, confirmation dose response, primary screen (AID 588689). It is filed as functional.
Chain of Genome polyprotein (P29990 2492-3391 limits assumed): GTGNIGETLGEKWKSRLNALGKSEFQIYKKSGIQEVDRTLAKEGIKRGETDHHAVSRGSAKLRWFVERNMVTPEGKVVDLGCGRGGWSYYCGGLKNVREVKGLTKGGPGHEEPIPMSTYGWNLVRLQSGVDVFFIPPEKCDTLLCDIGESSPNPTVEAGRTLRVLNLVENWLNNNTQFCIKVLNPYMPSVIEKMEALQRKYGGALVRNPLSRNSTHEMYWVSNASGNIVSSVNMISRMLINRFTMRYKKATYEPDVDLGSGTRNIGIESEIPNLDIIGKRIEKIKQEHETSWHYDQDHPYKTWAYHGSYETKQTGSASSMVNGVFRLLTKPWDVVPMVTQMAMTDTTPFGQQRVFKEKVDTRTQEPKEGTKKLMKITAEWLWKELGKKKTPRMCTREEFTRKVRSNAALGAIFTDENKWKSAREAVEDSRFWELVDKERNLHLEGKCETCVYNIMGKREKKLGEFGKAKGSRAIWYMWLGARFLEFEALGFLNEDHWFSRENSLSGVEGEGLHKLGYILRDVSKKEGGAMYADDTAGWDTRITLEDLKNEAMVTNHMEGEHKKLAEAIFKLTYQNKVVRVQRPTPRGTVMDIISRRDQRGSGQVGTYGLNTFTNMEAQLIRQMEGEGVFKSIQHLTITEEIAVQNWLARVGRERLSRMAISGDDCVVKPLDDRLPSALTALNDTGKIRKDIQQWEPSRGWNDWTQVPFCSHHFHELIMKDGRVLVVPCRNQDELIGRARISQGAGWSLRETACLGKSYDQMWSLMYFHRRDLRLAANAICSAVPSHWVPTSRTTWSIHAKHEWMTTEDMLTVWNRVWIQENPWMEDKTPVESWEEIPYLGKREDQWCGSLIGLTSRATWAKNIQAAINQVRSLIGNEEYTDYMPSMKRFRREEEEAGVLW
The target of data set [5] is T4, Polyadenylate-binding protein 1 (Homo sapiens, UniProt P11940). The data set can be described thus: MLLE domain peptide-binding blockers, IC50 – biochemical, fluorescence polarization, FITC-PAM2 peptide, dose response (AID 602259). In kind it is functional. The settings on record: read-out: IC50_Mean. A general note: Fluorescence polarisation rises when a labelled molecule tumbles more slowly, as on binding a larger partner.
T4 sequence (P11940 whole entry, the tested form may be a part): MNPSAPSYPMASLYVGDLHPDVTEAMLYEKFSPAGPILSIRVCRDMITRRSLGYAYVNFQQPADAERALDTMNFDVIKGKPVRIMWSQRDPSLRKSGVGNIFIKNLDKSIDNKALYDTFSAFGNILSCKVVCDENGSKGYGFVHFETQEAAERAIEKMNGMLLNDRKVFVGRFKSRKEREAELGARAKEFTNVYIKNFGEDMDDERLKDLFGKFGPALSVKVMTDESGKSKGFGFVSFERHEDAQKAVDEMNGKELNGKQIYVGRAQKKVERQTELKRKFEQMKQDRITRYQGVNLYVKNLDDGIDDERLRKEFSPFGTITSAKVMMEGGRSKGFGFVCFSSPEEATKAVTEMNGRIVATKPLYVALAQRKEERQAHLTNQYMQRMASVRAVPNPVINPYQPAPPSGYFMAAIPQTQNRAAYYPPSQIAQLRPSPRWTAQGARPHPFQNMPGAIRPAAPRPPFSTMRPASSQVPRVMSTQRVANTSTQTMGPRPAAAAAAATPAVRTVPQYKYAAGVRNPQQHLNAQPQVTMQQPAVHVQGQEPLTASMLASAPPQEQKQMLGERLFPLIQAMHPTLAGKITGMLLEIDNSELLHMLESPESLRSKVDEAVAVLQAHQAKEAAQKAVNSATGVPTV

Data set [6] concerns the target T4, Polyadenylate-binding protein 1. The data set can be described thus: MLLE binding blockers, Cy5 peptide tracer – biochemical, fluorescence polarization, Cy5-PAM2 peptide, secondary, miRNA deadenylation inhibitor project, dose response (AID 602260). It is filed as functional. As to conditions: read-out: IC50_Mean.
The next data set has as its target T5, Cytochrome P450 1A2 (Homo sapiens, UniProt P05177).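 Note: PubChem cytochrome P450 panel assay, CYP1A2 panel member.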
T5 sequence (P05177 whole entry): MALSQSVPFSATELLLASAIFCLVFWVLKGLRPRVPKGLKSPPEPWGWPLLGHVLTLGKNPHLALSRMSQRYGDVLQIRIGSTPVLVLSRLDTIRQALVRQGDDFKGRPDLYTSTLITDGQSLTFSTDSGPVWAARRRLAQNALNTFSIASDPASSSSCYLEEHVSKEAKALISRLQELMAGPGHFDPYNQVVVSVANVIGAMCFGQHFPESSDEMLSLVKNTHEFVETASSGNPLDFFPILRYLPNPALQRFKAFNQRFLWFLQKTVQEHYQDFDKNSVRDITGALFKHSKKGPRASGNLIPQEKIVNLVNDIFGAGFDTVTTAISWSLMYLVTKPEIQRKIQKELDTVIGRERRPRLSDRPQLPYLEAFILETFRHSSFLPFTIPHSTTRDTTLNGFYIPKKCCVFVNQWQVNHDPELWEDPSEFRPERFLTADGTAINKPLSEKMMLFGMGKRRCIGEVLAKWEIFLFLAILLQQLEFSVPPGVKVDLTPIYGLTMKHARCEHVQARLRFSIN

The nature of data set [7]: viability of uninfected HEp-2 cells – cell-based, HTS, cytotoxicity control for RSV inhibitor project, dose response (AID 2410). The settings on record: human respiratory syncytial virus. It is filed as functional.
Data set [8] can be described thus: viability loss in THP-1 monocytes – THP-1 cells, cytotoxicity control for Vif-APOBEC3G degradation inhibitor project, dose response (AID 1117359). In kind it is functional. As to conditions: THP-1.

Chain of Cytochrome P450 3A4 (P08684 whole entry): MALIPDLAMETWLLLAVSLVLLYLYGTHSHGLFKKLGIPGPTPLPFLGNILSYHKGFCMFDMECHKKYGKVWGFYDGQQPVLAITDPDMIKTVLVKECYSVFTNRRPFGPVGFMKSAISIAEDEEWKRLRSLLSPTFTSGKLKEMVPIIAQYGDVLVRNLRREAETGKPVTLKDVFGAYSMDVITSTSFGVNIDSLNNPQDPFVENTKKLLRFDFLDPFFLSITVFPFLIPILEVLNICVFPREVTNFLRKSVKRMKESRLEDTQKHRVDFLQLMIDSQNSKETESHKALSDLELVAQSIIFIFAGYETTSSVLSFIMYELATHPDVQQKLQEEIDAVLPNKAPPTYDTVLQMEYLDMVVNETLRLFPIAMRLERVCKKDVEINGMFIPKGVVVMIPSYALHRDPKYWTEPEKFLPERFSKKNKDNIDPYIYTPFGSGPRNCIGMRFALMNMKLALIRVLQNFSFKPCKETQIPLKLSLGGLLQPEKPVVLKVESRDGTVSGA
Chain of Cytochrome P450 2C9 (P11712 whole entry): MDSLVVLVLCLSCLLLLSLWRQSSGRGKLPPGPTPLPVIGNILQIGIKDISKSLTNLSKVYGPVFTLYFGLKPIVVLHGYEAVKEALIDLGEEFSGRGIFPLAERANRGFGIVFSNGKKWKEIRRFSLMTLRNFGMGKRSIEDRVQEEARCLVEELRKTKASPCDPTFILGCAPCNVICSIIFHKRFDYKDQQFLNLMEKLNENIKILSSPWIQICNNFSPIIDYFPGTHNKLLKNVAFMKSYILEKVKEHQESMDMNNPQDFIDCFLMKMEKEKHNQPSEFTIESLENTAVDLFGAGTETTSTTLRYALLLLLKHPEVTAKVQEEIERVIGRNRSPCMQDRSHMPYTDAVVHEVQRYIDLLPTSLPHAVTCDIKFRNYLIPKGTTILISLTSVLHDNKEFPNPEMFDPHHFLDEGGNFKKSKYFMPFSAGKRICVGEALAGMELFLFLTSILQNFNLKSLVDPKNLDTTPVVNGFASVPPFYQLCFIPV
Chain of Cytochrome P450 2D6 (P10635 whole entry): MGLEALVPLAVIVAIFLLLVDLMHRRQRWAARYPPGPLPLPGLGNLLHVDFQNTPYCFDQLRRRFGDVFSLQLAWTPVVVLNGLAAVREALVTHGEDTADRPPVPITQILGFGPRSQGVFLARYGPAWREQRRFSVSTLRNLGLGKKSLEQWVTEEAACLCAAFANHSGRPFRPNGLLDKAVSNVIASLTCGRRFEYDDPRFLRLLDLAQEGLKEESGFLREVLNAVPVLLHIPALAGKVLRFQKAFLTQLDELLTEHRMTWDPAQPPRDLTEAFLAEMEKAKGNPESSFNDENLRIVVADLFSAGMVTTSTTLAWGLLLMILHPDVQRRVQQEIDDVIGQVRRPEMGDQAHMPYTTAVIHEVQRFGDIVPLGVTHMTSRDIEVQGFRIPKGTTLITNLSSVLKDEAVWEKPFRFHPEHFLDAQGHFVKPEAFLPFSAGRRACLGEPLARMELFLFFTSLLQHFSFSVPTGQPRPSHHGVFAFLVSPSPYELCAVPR

One may read the AC50 as the concentration at which the activity in the assay is half-maximal. Turning to `CSc1nc2ccccc2cc1/C=C(\C#N)c1cccc(Cl)c1`, the AC50 on Cytochrome P450 2C9 was 39.8 µM (inconclusive); on Cytochrome P450 3A4 it was “inconclusive”; in data set [1], 1.17 µM (active).

As usually defined, the EC50 is the concentration at which the effect is half-maximal. Consider `O=C(COC(=O)C1CC(=O)N(Cc2ccco2)C1)c1ccc(OC(=O)c2ccco2)cc1` (centres undefined), for which the AC50 in data set [2] is > 380 µM (inactive). Besides, the IC50 at Coagulation factor XII is 13.3 µM (active). For the same compound, the EC50 at Protein RecA is 18 µM (active).

Consider `COc1cc(CN2CCN(c3cc(C)ccc3C)CC2)ccc1O`, for which the IC50 in data set [3] is 2.74 µM (active); in data set [4] it was 1.4 µM (active). Also, in the data set with INS1, the AC50 is 1.66 µM (active).

As usually defined, the CC50 is the concentration at which the toxic effect on the cells reaches its halfway point. Regarding `COc1cc(/C=C2\SC(=S)N(NS(=O)(=O)c3ccccc3)C2=O)cc(OC)c1OC`, the CC50 in the data set with Vero is > 40 µM (active). At Genome polyprotein, the IC50 was 65 µM (active).

Consider `Cc1sc2nc3ccc(NCc4ccco4)nn3c(=O)c2c1C`, for which the IC50 in data set [5] was > 66 µM (inactive); on Genome polyprotein, > 100 µM (active); in [6], > 66 µM (inactive). For the same compound, the cytotoxic concentration (CC50) in the data set with Vero was > 40 µM (active).

For `O[C@@H](c1ccccc1)C1CCN(CCc2ccccc2)CC1`, the figures for the half-maximal activity concentration (AC50) at Cytochrome P450 1A2, on Cytochrome P450 3A4 and at Cytochrome P450 2D6 were 31.6 µM (inconclusive), “inconclusive” and 25.1 µM (inconclusive), respectively.

For `CC(=O)O[C@]1(C(C)=O)CC[C@@H]2[C@@H]3C=C(C)C4=CC(=O)CC[C@@]4(C)[C@H]3CC[C@]21C`, the concentration at half-maximal activity (AC50) at Cytochrome P450 2C9 is 12.6 µM (inconclusive); on Cytochrome P450 3A4, “inconclusive”.

`CC(=O)c1cccc(S(=O)(=O)N2CCN(c3nc4cc(C)cc(C)c4cc3C#N)CC2)c1`: the IC50 in data set [3] is 3.28 µM (active); in data set [4] it was 5.84 µM (active). Further, in data set [7], the CC50 was 18.4 µM (active).

As to `CCN1CCN(CC(=O)N2c3ccccc3CC2C)CC1.O=C(O)C(=O)O` (centres undefined), the AC50 result at Cytochrome P450 3A4 is “inconclusive”; at Cytochrome P450 2D6, 17.8 µM (inconclusive).

As to `CCOC(=O)N1CCN(C2=C(NS(=O)(=O)c3ccc(Br)cc3)C(=O)c3ccccc3C2=O)CC1`, the 50% cytotoxic concentration (CC50) in the data set on Vero is > 40 µM (active).

Consider `COc1cc2c(cc1OC)C(=O)C(Br)CC2` (centres undefined), for which the results for the half-maximal cytotoxic concentration (CC50) (in the data set with Vero; in data set [8]) were 26.4 µM (active) and > 40 µM (active), respectively.

`NCCS` [CYSTEAMINE]: the half-maximal activity concentration (AC50) result on Cytochrome P450 3A4 is “inconclusive”.
